“And” between values parts separate entries of the source, which are not always exact repeats. Identical values can stand only once. Inconclusive results are not listed.
System: nude mice, A549 intrarenal xenograft, tumor weight change
Test: NCI In Vivo Anticancer Drug Screen. Data for tumor model A549 Human Adenocarcinoma of Lung with characteristics of Type II Alveolar Epithelial cells (intrarenal inoculation) in NU/NU BALB/C (nude) mice
Conditions: endpoint: mean tumor weight change, higher = larger tumour
Procedure, shortened: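 Activity is expressed as T/C: the treated-group value over the vehicle-treated control value. The measure was survival or tumor size in mice carrying transplantable tumors.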

[1] = dose: 25.0 mg/kg/injection, schedule: Q04DX003 (ip), vehicle: saline
[2] = dose: 50.0 mg/kg/injection, schedule: Q04DX003 (ip), vehicle: saline
[3] = dose: 150.0 mg/kg/injection, schedule: Q04DX003 (ip), vehicle: Klucel (hydroxypropylcellulose) (HPC)
[4] = dose: 300.0 mg/kg/injection, schedule: Q04DX003 (ip), vehicle: Klucel (hydroxypropylcellulose) (HPC)
[5] = dose: 75.0 mg/kg/injection, schedule: Q04DX003 (ip), vehicle: Klucel (hydroxypropylcellulose) (HPC)

COc1cc2c(cc1OC)-c1c3c(cc4c1[C@@H](C2)N(C)CC4)OCO3
T/C (dose: 37.5 mg/kg/injection, schedule: Q04DX003 (ip), vehicle: distilled water + Tween-80 + alcohol): 89 % of control
T/C (dose: 75.0 mg/kg/injection, schedule: Q04DX003 (ip), vehicle: distilled water + Tween-80 + alcohol): 84 % of control
T/C (dose: 150.0 mg/kg/injection, schedule: Q04DX003 (ip), vehicle: distilled water + Tween-80 + alcohol): 21 % of control

Nc1ccc2ccc(N)cc2c1
T/C (dose: 100.0 mg/kg/injection, schedule: Q04DX003 (ip), vehicle: saline with Tween-80): 87 % of control
T/C (dose: 200.0 mg/kg/injection, schedule: Q04DX003 (ip), vehicle: saline with Tween-80): 111 % of control
T/C (dose: 400.0 mg/kg/injection, schedule: Q04DX003 (ip), vehicle: saline with Tween-80): 55 % of control

C/C(=N\NC(=S)N1CC2CCC(CC2)C1)c1cccc(C)n1
T/C (dose: 12.5 mg/kg/injection, schedule: Q04DX003 (ip), vehicle: saline with Tween-80): 114 % of control
T/C (dose: 25.0 mg/kg/injection, schedule: Q04DX003 (ip), vehicle: saline with Tween-80): 81 % of control

NNC(=O)c1ccncc1
T/C (dose: 37.5 mg/kg/injection, schedule: Q04DX003 (ip), vehicle: saline): 99 % of control
T/C (dose: 75.0 mg/kg/injection, schedule: Q04DX003 (ip), vehicle: saline): 104 % of control
T/C (dose: 150.0 mg/kg/injection, schedule: Q04DX003 (ip), vehicle: saline): 69 % of control

CCOc1ccc(-c2nc3ccc(-c4nc5ccc(N6CCN(C)CC6)cc5[nH]4)cc3[nH]2)cc1
T/C (dose: 6.25 mg/kg/injection, schedule: Q04DX003 (ip), vehicle: saline): 155 % of control
T/C [1]: 101 % of control
T/C [2]: 171 % of control

Nc1ccn([C@@H]2C=C(CO)[C@@H](O)[C@H]2O)c(=O)n1
T/C (dose: 0.67 mg/kg/injection, schedule: Q01DX009 (ip), vehicle: saline): 58 % of control
T/C (dose: 1.0 mg/kg/injection, schedule: Q01DX009 (ip), vehicle: saline): 20 % of control and 40 % of control
T/C (dose: 1.5 mg/kg/injection, schedule: Q01DX009 (ip), vehicle: saline): -59 % of control
T/C (dose: 2.0 mg/kg/injection, schedule: Q01DX009 (ip), vehicle: saline): 8 % of control

COc1ccc(N=N/N=c2\sc3cc(OC)ccc3n2C)cc1
T/C (dose: 30.0 mg/kg/injection, schedule: Q04DX003 (ip), vehicle: saline with Tween-80): 100 % of control
T/C (dose: 60.0 mg/kg/injection, schedule: Q04DX003 (ip), vehicle: saline with Tween-80): 87 % of control
T/C (dose: 120.0 mg/kg/injection, schedule: Q04DX003 (ip), vehicle: saline with Tween-80): 73 % of control
T/C (dose: 240.0 mg/kg/injection, schedule: Q04DX003 (ip), vehicle: saline with Tween-80): 37 % of control

Cc1c(O)/c(=C\O)c2nc3c(=O)ccc(C(=O)NCCN(C)C)c3[nH]c2c1=O
T/C (dose: 50.0 mg/kg/injection, schedule: Q04DX003 (ip), vehicle: water): 120 % of control
T/C (dose: 100.0 mg/kg/injection, schedule: Q04DX003 (ip), vehicle: water): 48 % of control
T/C (dose: 120.0 mg/kg/injection, schedule: Q04DX003 (ip), vehicle: water): 52 % of control and 75 % of control

O=C(O)CCCc1ccc(N(CCCl)CCCl)cc1
T/C (dose: 0.13 mg/kg/injection, schedule: Q04DX003 (ip), vehicle: Klucel (hydroxypropylcellulose) (HPC)): 93 % of control
T/C (dose: 0.2 mg/kg/injection, schedule: Q04DX003 (ip), vehicle: Klucel (hydroxypropylcellulose) (HPC)): 101 % of control
T/C (dose: 0.3 mg/kg/injection, schedule: Q04DX003 (ip), vehicle: Klucel (hydroxypropylcellulose) (HPC)): 169 % of control
T/C (dose: 12.0 mg/kg/injection, schedule: Q04DX003 (ip), vehicle: saline with Tween-80): 118 % of control
T/C (dose: 18.0 mg/kg/injection, schedule: Q04DX003 (ip), vehicle: saline with Tween-80): 64 % of control
T/C (dose: 27.0 mg/kg/injection, schedule: Q04DX003 (ip), vehicle: saline with Tween-80): 15 % of control

CCCCCCCCCCCCN1C(C)=CS/C1=C\C=C\c1scc(C)[n+]1CCCCCCCCCCCC
T/C (dose: 0.75 mg/kg/injection, schedule: Q04DX003 (ip), vehicle: saline with Tween-80): 112 % of control
T/C (dose: 1.5 mg/kg/injection, schedule: Q04DX003 (ip), vehicle: saline with Tween-80): 87 % of control
T/C (dose: 6.0 mg/kg/injection, schedule: Q04DX003 (ip), vehicle: saline with Tween-80): 36 % of control

O=C1c2cccc(NCCCNCCO)c2C(=O)c2cccc(NCCCNCCO)c21
T/C (dose: 12.5 mg/kg/injection, schedule: Q04DX003 (ip), vehicle: acid diluted with saline): 108 % of control
T/C (dose: 25.0 mg/kg/injection, schedule: Q04DX003 (ip), vehicle: acid diluted with saline): 70 % of control

O=C(NC(Cc1ccc(I)cc1)C(=O)O)c1cccc(Br)c1 (centres undefined)
T/C (dose: 100.0 mg/kg/injection, schedule: Q04DX003 (ip), vehicle: Klucel (hydroxypropylcellulose) (HPC)): 99 % of control
T/C [3]: 35 % of control
T/C (dose: 200.0 mg/kg/injection, schedule: Q04DX003 (ip), vehicle: Klucel (hydroxypropylcellulose) (HPC)): 45 % of control
T/C [4]: 35 % of control

O=C(Nc1cccc(O)c1)C(Cl)=C(Cl)Cl
T/C (dose: 18.0 mg/kg/injection, schedule: Q04DX003 (ip), vehicle: other): 46 % of control
T/C (dose: 25.0 mg/kg/injection, schedule: Q04DX003 (ip), vehicle: DMSO): 108 % of control
T/C (dose: 30.0 mg/kg/injection, schedule: Q04DX003 (ip), vehicle: other): 50 % of control and 74 % of control
T/C (dose: 50.0 mg/kg/injection, schedule: Q04DX003 (ip), vehicle: DMSO): 18 % of control
T/C (dose: 50.0 mg/kg/injection, schedule: Q04DX003 (ip), vehicle: other): 76 % of control

N[C@@H](Cc1c[nH]c2ccccc12)C(=O)Nc1nncs1
T/C (dose: 150.0 mg/kg/injection, schedule: Q04DX003 (ip), vehicle: suspension in saline): 74 % of control
T/C (dose: 300.0 mg/kg/injection, schedule: Q04DX003 (ip), vehicle: suspension in saline): 67 % of control
T/C (dose: 600.0 mg/kg/injection, schedule: Q04DX003 (ip), vehicle: suspension in saline): 70 % of control

C=C(c1ccc(OC)c(OC)c1)c1nccc2cc(OC)c(OC)cc12
T/C [3]: 50 % of control
T/C [4]: 62 % of control

C/C(=N\NC(=O)c1ccccc1O)c1cccc(/C(C)=N/NC(=O)c2ccccc2O)n1
T/C [1]: 97 % of control
T/C [2]: 71 % of control
T/C (dose: 100.0 mg/kg/injection, schedule: Q04DX003 (ip), vehicle: saline): 65 % of control
T/C (dose: 200.0 mg/kg/injection, schedule: Q04DX003 (ip), vehicle: saline): 77 % of control

C=C1c2cccc(O)c2C(O)=C2C(=O)[C@]3(O)C(O)=C(C(N)=O)C(=O)[C@@H](N(C)C)[C@@H]3[C@@H](O)[C@H]12
T/C [5]: 96 % of control

O=S(=O)(c1cccc(N=C=S)c1)c1cccc(N=C=S)c1
T/C (dose: 30.0 mg/kg/injection, schedule: Q04DX003 (ip), vehicle: Klucel (hydroxypropylcellulose) (HPC)): 67 % of control

O=[N+]([O-])c1ccc([I+]c2ccccc2)cc1
T/C (dose: 18.75 mg/kg/injection, schedule: Q04DX003 (ip), vehicle: Klucel (hydroxypropylcellulose) (HPC)): 35 % of control
T/C (dose: 37.5 mg/kg/injection, schedule: Q04DX003 (ip), vehicle: Klucel (hydroxypropylcellulose) (HPC)): 101 % of control
T/C [5]: 51 % of control

C/C=C/CC(C)C(O)C1C(=O)NC(CC)C(=O)N(C)CC(=O)N(C)C(CC(C)C)C(=O)NC(C(C)C)C(=O)N(C)C(CC(C)C)C(=O)NC(C)C(=O)NC(C)C(=O)N(C)C(CC(C)C)C(=O)N(C)C(CC(C)C)C(=O)N(C)C(C(C)C)C(=O)N1C (centres undefined)
T/C [5]: 158 % of control
T/C [3]: 65 % of control

CC1=C[P+](c2ccccc2)(c2ccccc2)C=C(c2ccccc2)O1
T/C (dose: 1.0 mg/kg/injection, schedule: Q04DX003 (ip), vehicle: suspension in saline): 94 % of control
T/C (dose: 2.0 mg/kg/injection, schedule: Q04DX003 (ip), vehicle: suspension in saline): 89 % of control
T/C (dose: 8.0 mg/kg/injection, schedule: Q04DX003 (ip), vehicle: suspension in saline): 80 % of control

NC(=O)c1cc(Cl)nc2nc(Cl)nc(N)c12
T/C (dose: 150.0 mg/kg/injection, schedule: Q04DX003 (ip), vehicle: saline with Tween-80): 111 % of control
T/C (dose: 300.0 mg/kg/injection, schedule: Q04DX003 (ip), vehicle: saline with Tween-80): 89 % of control
T/C (dose: 600.0 mg/kg/injection, schedule: Q04DX003 (ip), vehicle: saline with Tween-80): 55 % of control
T/C (dose: 1200.0 mg/kg/injection, schedule: Q04DX003 (ip), vehicle: saline with Tween-80): 93 % of control

CC(C)(C[NH-])C[NH-].[Cl][Pt+2][Cl]
T/C (dose: 1.5 mg/kg/injection, schedule: Q04DX003 (ip), vehicle: water): 40 % of control
T/C (dose: 3.0 mg/kg/injection, schedule: Q04DX003 (ip), vehicle: water): 70 % of control
T/C (dose: 6.0 mg/kg/injection, schedule: Q04DX003 (ip), vehicle: water): 62 % of control
T/C (dose: 12.0 mg/kg/injection, schedule: Q04DX003 (ip), vehicle: water): 52 % of control

C=CCOc1cc2c(cc1C(C)c1ccc(OC)cc1)OCO2 (centres undefined)
T/C [5]: 58 % of control
T/C [3]: 94 % of control and 77 % of control

Source: PubChem BioAssay AID278 (DTP/NCI, 2004)
